Reference: ChEMBL document CHEMBL1201862, “PubChem BioAssay data set” (2004)
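These data come from cells grown in 96-well plates and exposed to compound for 48 hours at five concentrations. At the GI50, growth is halved.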 Active and inactive are the calls of the source. Rule as the data show it: active = GI50 up to about 1.1 µM and inactive = higher.

Assays:
Experiment in all cases: inhibition of tumour cell growth, NCI panel, 48 h
786-0 = system: 786-0
A549 = system: A549
ACHN = system: ACHN
BT-549 = system: BT-549
CAKI-1 = system: CAKI-1
CCRF-CEM = system: CCRF-CEM
COLO 205 = system: COLO 205
EKVX = system: EKVX
HCC 2998 = system: HCC 2998
HCT-116 = system: HCT-116
HCT-15 = system: HCT-15
HL-60 = system: HL-60
HOP-62 = system: HOP-62
HOP-92 = system: HOP-92
HT-29 = system: HT-29
Hs-578T = system: Hs-578T
IGROV-1 = system: IGROV-1
K562 = system: K562
KM12 = system: KM12
LOX IMVI = system: LOX IMVI
M14 = system: M14
MCF7 = system: MCF7
MDA-MB-231 = system: MDA-MB-231
MDA-MB-435 = system: MDA-MB-435
MDA-N = system: MDA-N
MOLT-4 = system: MOLT-4
Malme-3M = system: Malme-3M
NCI-H226 = system: NCI-H226
NCI-H23 = system: NCI-H23
NCI-H460 = system: NCI-H460
NCI-H522 = system: NCI-H522
NCI/ADR-RES = system: NCI/ADR-RES
OVCAR-3 = system: OVCAR-3
OVCAR-4 = system: OVCAR-4
OVCAR-5 = system: OVCAR-5
OVCAR-8 = system: OVCAR-8
PC-3 = system: PC-3
RPMI-8226 = system: RPMI-8226
RXF 393 = system: RXF 393
SF-268 = system: SF-268
SF-295 = system: SF-295
SF-539 = system: SF-539
SK-MEL-28 = system: SK-MEL-28
SK-MEL-2 = system: SK-MEL-2
SK-MEL-5 = system: SK-MEL-5
SK-OV-3 = system: SK-OV-3
SN12C = system: SN12C
SNB-19 = system: SNB-19
SNB-75 = system: SNB-75
SW-620 = system: SW-620
T47D = system: T47D
U-251 = system: U-251
UACC-257 = system: UACC-257
UACC-62 = system: UACC-62

Measured: GI50

COc1ccc(C2SC(=N)Nc3c2c(C)nn3C(=O)c2ccccc2O)cc1 (centres undefined)
inactive: 786-0 1310 nM | BT-549 1160 nM | CCRF-CEM 2040 nM | COLO 205 8870 nM | EKVX 7380 nM | HCC 2998 > 10000 nM | HL-60 2580 nM | HOP-62 2770 nM | HOP-92 > 10000 nM | HT-29 5110 nM | KM12 2890 nM | LOX IMVI 3600 nM | M14 1670 nM | MCF7 1610 nM | MOLT-4 1810 nM | NCI-H460 3720 nM | NCI-H522 3850 nM | NCI/ADR-RES 2120 nM | OVCAR-3 1960 nM | OVCAR-4 1900 nM | OVCAR-5 8090 nM | PC-3 3810 nM | RPMI-8226 1560 nM | SF-295 3980 nM | SK-MEL-28 > 10000 nM | SK-MEL-2 2570 nM | SK-MEL-5 2590 nM | SK-OV-3 5320 nM | SN12C 2440 nM | SNB-19 > 10000 nM | SW-620 5470 nM | T47D 8990 nM | UACC-257 2810 nM
4580 nM: HCT-15
active: A549 412 nM | ACHN 374 nM | CAKI-1 667 nM | HCT-116 655 nM | Hs-578T 490 nM | IGROV-1 497 nM | K562 450 nM | MDA-MB-231 986 nM | MDA-MB-435 455 nM | MDA-N 843 nM | Malme-3M 659 nM | NCI-H226 904 nM | NCI-H23 933 nM | OVCAR-8 998 nM | RXF 393 532 nM | SF-268 885 nM | SF-539 270 nM | SNB-75 308 nM | U-251 900 nM | UACC-62 583 nM
